Experimental data from patent US20250313574A1, “SIALIC ACID DERIVATIVES AND METHODS OF USING SAME” (EISAI R&D MANAGEMENT CO., LTD., priority 2022, published 2025).

Columns and labels:
[1] = target: Recombinant human CD33 protein (Homo sapiens (Human), UniProt P20138); assay: CD33 competitive binding assay for HTS drug screen (fluorescent multivalent sialic acid probe)
In short: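 Recombinant human CD33, coated overnight at 4° C from 10 μg/ml in pH 5.5 acetate, was preincubated briefly with compound. It was then exposed to a multivalent neutravidin/FITC/sialic acid analog A-375 probe (final 5 μM neutravidin, 15 μM A-375, 5 μM FITC) for 30 min at room temperature. After washing, bound FITC fluorescence was read.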

[2] = target: Recombinant Human Siglec-3/CD33 protein (His-CD33) (Homo sapiens (Human), UniProt P20138); assay: Differential scanning fluorimetry (DSF) thermal shift assay; type: binding; settings: difference in thermal melt of CD33 protein (0.5 μM) with 50 μM compound
Chain of Recombinant Human Siglec-3/CD33 protein (His-CD33) (P20138 18-259): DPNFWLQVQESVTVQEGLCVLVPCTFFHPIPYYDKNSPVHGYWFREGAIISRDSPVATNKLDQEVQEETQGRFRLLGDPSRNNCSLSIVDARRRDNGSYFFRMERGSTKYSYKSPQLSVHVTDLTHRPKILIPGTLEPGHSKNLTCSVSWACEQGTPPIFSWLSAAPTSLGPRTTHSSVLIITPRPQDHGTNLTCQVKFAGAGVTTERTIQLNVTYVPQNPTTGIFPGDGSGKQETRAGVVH

Chain of Recombinant human CD33 protein (P20138 18-259): as above

| Compound | EC50 [1] | DSF (dTmD) [2] |
| --- | --- | --- |
| CC(=O)N[C@H]1[C@H]([C@H](O)[C@H](O)CNC(=O)c2cc(C)c(O)c(C)c2)O[C@@](C[C@@H]2COC[C@]3(CCN(C(=O)OC(C)(C)C)C3)N2)(C(=O)O)C[C@@H]1O [A-229] | 22 nM | 13.0 °C |
| CC(=O)N[C@H]1[C@H]([C@H](O)[C@H](O)CNC(=O)c2cc(C)c(O)c(C)c2)O[C@@](C[C@@H]2COCC3(CCN(C(=O)OC(C)(C)C)CC3)N2)(C(=O)O)C[C@@H]1O [A-230] | 10600 nM | 1.1 °C |
| CC(=O)N[C@H]1[C@H]([C@H](O)[C@H](O)CNC(=O)c2cc(C)c(O)c(C)c2)O[C@@](C[C@H]2COCC3(CCN(C(=O)OC(C)(C)C)CC3)N2)(C(=O)O)C[C@@H]1O [A-231] | 1410 nM | 5.2 °C |
| CC(=O)N[C@H]1[C@H]([C@H](O)[C@H](O)CNC(=O)c2cc(C)c(O)c(C)c2)O[C@@](C/C=C/c2cccc(CNC(=O)c3ccc4[nH]c(C)c(C)c4c3)c2)(C(=O)O)C[C@@H]1O [A-238] | 347 nM | 9.2 °C |
| CC(=O)N[C@H]1[C@H]([C@H](O)[C@H](O)CNC(=O)c2cc(C)c(O)c(C)c2)O[C@@](C/C=C/c2cccc(CNC(=O)c3ccc(NS(C)(=O)=O)cc3)c2)(C(=O)O)C[C@@H]1O [A-239] | 1120 nM | 2.2 °C |
| CC(=O)N[C@H]1[C@H]([C@H](O)[C@H](O)CNC(=O)c2cc(C)c(O)c(C)c2)O[C@@](C/C=C/c2cccc(CNC(=O)c3ccc(Nc4ncccn4)cc3)c2)(C(=O)O)C[C@@H]1O [A-240] | 227 nM | 6.2 °C |
| CC(=O)N[C@H]1[C@H]([C@H](O)[C@H](O)CNC(=O)c2cc(C)c(O)c(C)c2)O[C@@](C/C=C/c2cccc(CNC(=O)c3cccc(Nc4nccs4)c3)c2)(C(=O)O)C[C@@H]1O [A-241] | 7970 nM | 5.3 °C |
| CC(=O)N[C@H]1[C@H]([C@H](O)[C@H](O)CNC(=O)c2cc(C)c(O)c(C)c2)O[C@@](C/C=C/c2cccc(CNC(=O)c3ccc4[nH]c(C(C)O)nc4c3)c2)(C(=O)O)C[C@@H]1O (stereo partly drawn) [A-243] | 255 nM | 5.4 °C |
| CC(=O)N[C@H]1[C@H]([C@H](O)[C@H](O)CNC(=O)c2cc(C)c(O)c(C)c2)O[C@@](C/C=C/c2cccc(CNC(=O)c3cccc(NCc4nc(C)cs4)c3)c2)(C(=O)O)C[C@@H]1O [A-245] | 9460 nM | 1.2 °C |
| CC(=O)N[C@H]1[C@H]([C@H](O)[C@H](O)CNC(=O)c2cc(C)c(O)c(C)c2)O[C@@](C/C=C/c2cccc(CNC(=O)c3cccc(NCc4cncs4)c3)c2)(C(=O)O)C[C@@H]1O [A-246] | 4000 nM | 2.2 °C |
| CC(=O)N[C@H]1[C@H]([C@H](O)[C@H](O)CNC(=O)c2cc(C)c(O)c(C)c2)O[C@@](C/C=C/c2cccc(CNC(=O)c3ccc4[nH]c(CCO)cc4c3)c2)(C(=O)O)C[C@@H]1O [A-248] | 682 nM | 6.0 °C |
| CC(=O)N[C@H]1[C@H]([C@H](O)[C@H](O)CNC(=O)c2cc(C)c(O)c(C)c2)O[C@@](C/C=C/c2cccc(CNC(=O)c3ccc4[nH]c(C(C)(C)CO)cc4c3)c2)(C(=O)O)C[C@@H]1O [A-249] | 224 nM | 8.1 °C |
| CC(=O)N[C@H]1[C@H]([C@H](O)[C@H](O)CNC(=O)c2cc(C)c(O)c(C)c2)O[C@@](C/C=C/c2cccc(CNC(=O)c3ccc4[nH]c(-c5c[nH]c6ccccc56)cc4c3)c2)(C(=O)O)C[C@@H]1O [A-250] | 3260 nM | 8.4 °C |
| CC(=O)N[C@H]1[C@H]([C@H](O)[C@H](O)CNC(=O)c2cc(C)c(O)c(C)c2)O[C@@](C/C=C/c2cccc(CNC(=O)c3cccc(NC(C)(C)C)c3)c2)(C(=O)O)C[C@@H]1O [A-251] | 9790 nM | 4.3 °C |
| CC(=O)N[C@H]1[C@H]([C@H](O)[C@H](O)CNC(=O)c2cc(C)c(O)c(C)c2)O[C@@](C/C=C/c2cccc(CNC(=O)c3ccc4[nH]c(-c5cccn5-c5ncccn5)nc4c3)c2)(C(=O)O)C[C@@H]1O [A-252] | 578 nM | 7.6 °C |
| CC(=O)N[C@H]1[C@H]([C@H](O)[C@H](O)CNC(=O)c2cc(C)c(O)c(C)c2)O[C@@](C/C=C/c2cccc(CNC(=O)c3ccc4[nH]c5c(c4c3)CCC(=O)N5C)c2)(C(=O)O)C[C@@H]1O [A-254] | 193 nM | 9.2 °C |
| CC(=O)N[C@H]1[C@H]([C@H](O)[C@H](O)CNC(=O)c2cc(C)c(O)c(C)c2)O[C@@](C/C=C/c2cccc(CNC(=O)c3ccc(NC(C)(C)C)cc3)c2)(C(=O)O)C[C@@H]1O [A-257] | 1600 nM | 5.9 °C |
| Cc1cc(C(=O)NC[C@@H](O)[C@@H](O)[C@@H]2O[C@@](C/C=C/c3cccc(CNC(=O)C4CCCOC4)c3)(C(=O)O)C[C@H](O)[C@H]2NC(=O)Cn2cc(C3CCCCC3)nn2)cc(C)c1O (stereo partly drawn) [A-260] | 7940 nM | 4.2 °C |

The remaining lines, values ahead:

| EC50 [1] | DSF (dTmD) [2] | Compound |
| --- | --- | --- |
| 74 nM | 9.8 °C | COCc1cc2cc(C(=O)NCc3cccc(/C=C/C[C@]4(C(=O)O)C[C@H](O)[C@@H](NC(C)=O)[C@H]([C@H](O)[C@H](O)CNC(=O)c5cc(C)c(O)c(C)c5)O4)c3)ccc2[nH]1 [A-232] |
| 8990 nM | 3.0 °C | CC(=O)N[C@H]1[C@H]([C@H](O)[C@H](O)CNC(=O)c2cc(C)c(O)c(C)c2)O[C@@](C/C=C/c2ccccc2CNC(=O)C2CCCOC2)(C(=O)O)C[C@@H]1O (stereo partly drawn) [A-233] |
| 930 nM | 4.6 °C | CC(=O)N[C@H]1[C@H]([C@H](O)[C@H](O)CNC(=O)c2cc(C)c(O)c(C)c2)O[C@@](C/C=C/c2cccc(CNC(=O)c3ccc4[nH]ccc4c3)c2)(C(=O)O)C[C@@H]1O [A-234] |
| 2090 nM | 3.3 °C | CC(=O)N[C@H]1[C@H]([C@H](O)[C@H](O)CNC(=O)c2cc(C)c(O)c(C)c2)O[C@@](C/C=C/c2cccc(CNC(=O)c3ccc4cn[nH]c4c3)c2)(C(=O)O)C[C@@H]1O [A-235] |
| 2010 nM | 4.4 °C | CC(=O)N[C@H]1[C@H]([C@H](O)[C@H](O)CNC(=O)c2cc(C)c(O)c(C)c2)O[C@@](C/C=C/c2cccc(CNC(=O)c3ccc4[nH]cnc4c3)c2)(C(=O)O)C[C@@H]1O [A-236] |
| 5030 nM | 0.8 °C | CC(=O)N[C@H]1[C@H]([C@H](O)[C@H](O)CNC(=O)c2cc(C)c(O)c(C)c2)O[C@@](C/C=C/c2cccc(CNC(=O)c3ccc4[nH]nnc4c3)c2)(C(=O)O)C[C@@H]1O [A-237] |
| 502 nM | 7.6 °C | CC(=O)N[C@H]1[C@H]([C@H](O)[C@H](O)CNC(=O)c2cc(C)c(O)c(C)c2)O[C@@](C/C=C/c2cccc(CNC(=O)c3ccc4[nH]ccc4c3)c2)(C(=O)O)C[C@@H]1O [A-242] |
| 9560 nM | 0.8 °C | CC(=O)N[C@H]1[C@H]([C@H](O)[C@H](O)CNC(=O)c2cc(C)c(O)c(C)c2)O[C@@](C/C=C/c2cccc(CNC(=O)C3(C)COC3)c2)(C(=O)O)C[C@@H]1O [A-244] |
| 353 nM | 8.5 °C | CC(=O)N[C@H]1[C@H]([C@H](O)[C@H](O)CNC(=O)c2cc(C)c(O)c(C)c2)O[C@@](C/C=C/c2cccc(CNC(=O)C3CCC(Nc4cnccn4)CC3)c2)(C(=O)O)C[C@@H]1O (stereo partly drawn) [A-247] |
| 195 nM | 9.6 °C | CC(=O)N[C@H]1[C@H]([C@H](O)[C@H](O)CNC(=O)c2cc(C)c(O)c(C)c2)O[C@@](C/C=C/c2cccc(CNC(=O)C3CCC(Nc4ncccn4)CC3)c2)(C(=O)O)C[C@@H]1O (stereo partly drawn) [A-253] |
| 4460 nM | 4.2 °C | CC(=O)N[C@H]1[C@H]([C@H](O)[C@H](O)CNC(=O)c2cc(C)c(O)c(C)c2)O[C@@](C/C=C/c2cccc(CNC(=O)C3CCC(Nc4ncccn4)C3)c2)(C(=O)O)C[C@@H]1O (stereo partly drawn) [A-255] |
| 2170 nM | 5.1 °C | CC(=O)N[C@H]1[C@H]([C@H](O)[C@H](O)CNC(=O)c2cc(C)c(O)c(C)c2)O[C@@](C/C=C/c2cccc(CNC(=O)C3CCC[C@H](Nc4ncccn4)C3)c2)(C(=O)O)C[C@@H]1O (stereo partly drawn) [A-256] |
| 9370 nM | 0.8 °C | CC(=O)N[C@H]1[C@H]([C@H](O)[C@H](O)CNC(=O)c2cc(C)c(O)c(C)c2)O[C@@](C/C=C/c2cccc(CNC(=O)C3CCC(Nc4ccc(C(N)=O)cn4)CC3)c2)(C(=O)O)C[C@@H]1O (stereo partly drawn) [A-258] |
| 5810 nM | 3.1 °C | CC(=O)N[C@H]1[C@H]([C@H](O)[C@H](O)CNC(=O)c2cc(C)c(O)c(C)c2)O[C@@](C/C=C/c2cccc(CNC(=O)C3CCCC(Nc4ccc(C)cn4)C3)c2)(C(=O)O)C[C@@H]1O (stereo partly drawn) [A-259] |
| 1440 nM | 4.4 °C | Cc1cc(C(=O)NC[C@@H](O)[C@@H](O)[C@@H]2O[C@@](C/C=C/c3cccc(CNC(=O)C4CCOCC4)c3)(C(=O)O)C[C@H](O)[C@H]2NC(=O)Cn2cc(C3CCCCC3)nn2)cc(C)c1O [A-261] |
| 6030 nM | 1.9 °C | Cc1cc(C(=O)NC[C@@H](O)[C@@H](O)[C@@H]2O[C@@](C/C=C/c3cccc(CNC(=O)c4cccc(Cl)c4)c3)(C(=O)O)C[C@H](O)[C@H]2NC(=O)Cn2cc(C3CCCCC3)nn2)cc(C)c1O [A-262] |
| 4000 nM | 3.5 °C | Cc1cc(C(=O)NC[C@@H](O)[C@@H](O)[C@@H]2O[C@@](C/C=C/c3cccc(CNC(=O)c4ccc(Cl)cc4)c3)(C(=O)O)C[C@H](O)[C@H]2NC(=O)Cn2cc(C3CCCCC3)nn2)cc(C)c1O [A-263] |
| 6330 nM | 5.5 °C | Cc1cc(C(=O)NC[C@@H](O)[C@@H](O)[C@@H]2O[C@@](C/C=C/c3cccc(CNC(=O)C4CCCC4)c3)(C(=O)O)C[C@H](O)[C@H]2NC(=O)Cn2cc(C3CCCCC3)nn2)cc(C)c1O [A-264] |
